The source of these data is paper PMC8536600 (Cancer Chemotherapy and Pharmacology, 2021).

Read-outs that look alike come from different tables or passages of the source.

The test system of data set [1] is CYP3A4. Particulars: cited from earlier work.
The nature of data set [2]: Clinical and laboratory adverse events (CTCAE v5.0) in relation to Ruxolitinib trough serum concentration. Format: in vivo, human. The settings on record: for Mean trough concentration in group: logistic regression on at least three AE. The procedure: Adverse events (AE) were registered by questioning patients at each sampling time point. Patients were specifically asked for AE occurring in ≥ 1/100 patients according to the prescribing information. Clinical AE were graded according to the […] (CTCAE) Version 5.0 [26]. Further recorded patient data included age, sex, height, weight, ethnicity, smoking status, dosing regimen, and comedication. Relevant laboratory parameters were recorded in parallel to blood sampling (estimated glomerular filtration rate (eGFR), serum creatinine, serum albumin, total cholesterol, total bilirubin, hemoglobin, white blood cell count, absolute neutrophil count, platelet count, aspartate, and alanine aminotransferase).
(§1) Data were collected and processed using Microsoft Excel 2016 Version 16.0 (Microsoft Corporation, Redmond, WA, USA). Statistical calculations and visualization of results were performed with R Studio Version 1.2.5042 (RStudio Incorporation, Boston, MA, USA) and running R version 4.0.5 (R Foundation for Statistical Computing, Vienna, Austria, 2020). […] To fully display the degree of variability, concentrations were also summarized across all patients, stratified by dosing scheme. Pairwise comparisons were performed using Wilcoxon rank-sum test. Wilcoxon-signed-rank test was used for […] samples. For comparisons between more than two groups the Kruskal–Wallis one-way analysis of variance combined with Dunn’s test post hoc was used. Spearman’s correlation was used for analysis of AE. Logistic regression followed by receiver operator characteristic (ROC) analysis was used to evaluate the risk for the occurrence of AE of any grade or type on a visit in relation to the corresponding trough concentration on that visit. Due to the explorative nature of the study, p values obtained from multiple comparisons were not corrected for multiple testing. A p value < 0.05 was considered statistically significant. A Spearman’s rho (ρ) correlation was defined as follows: 0 to 0.3 or 0 to −0.3, weak; 0.3 to 0.7 or −0.3 to −0.7, moderate and 0.7 to 1 or −0.7 to −1, strong.

The nature of data set [3]: Observed concentrations versus concentrations simulated with Chen et al.'s popPK model for myelofibrosis patients. The settings on record: simulated with Chen et al.'s MF model, lower than observed. Details: species or system human. An excerpt: The model published by Chen et al. was also encoded in R using the mrgsolve package for R [30]. Applying patient covariates and dosing schemes, the model was used to predict every observed concentration of every patient included in our study based on individual patient covariates and dosing data.

On the set-up of data set [4]: method as in Chen et al., J Clin Pharmacol. 2013;53(7):721-30. The settings on record: fixed, ref Chen et al., J Clin Pharmacol. 2013;53(7):721-30, cited from earlier work.
Data set [5] in a line: Steady state Ruxolitinib trough serum concentrations in GvHD patients in clinical routine (LC-MS/MS). Format: in vivo, human.
Source text: Patients were enrolled in a noninterventional prospective clinical trial at the University Hospital of Würzburg between February 2019 and February 2021. The study was approved by the Ethics Commission of the University of Würzburg (ref 199/18-am). All performed procedures were in accordance with the Declaration of Helsinki. Written informed consent was obtained from all patients. […] After enrollment blood samples and patient data were collected regularly during routine outpatient visits for 1 year. Treatment was managed at the discretion of the treating physician.
Serum samples were collected at each outpatient visit during routine blood withdrawal. Patients were asked to take Ruxolitinib after blood withdrawal. Date and time of last administration and blood withdrawal were recorded. Samples obtained at least 48 h after initiation or modification of therapy were considered steady state samples [27]. Samples obtained between eight and 30 h after last administration (depending on dosing scheme) were considered trough levels.
In brief, after protein precipitation with acetonitrile separation was achieved on a Waters XBridge Phenyl 3.5 µm (2.1 × 50 mm) column using gradient elution (flow rate 400 μL/min). […] Lower level of quantification (LLOQ) of the method was 2 ng/mL. Concentrations < LLOQ were excluded from further statistical analysis but included as censored data (between 0 ng/mL and LLOQ) in the popPK analysis.
as §1

For data set [6] the following is noted: cited from earlier work.
The nature of data set [7]: Exploratory population pharmacokinetic (popPK) analysis in GvHD patients. Format: in vivo, human. Particulars: for RUV b (residual unexplained variability, proportional error) / ωCL/F (inter-individual variability on CL/F) / ωV (inter-individual variability on Vc/F): as standard deviation of normal distribution. The procedure: An exploratory popPK analysis was conducted to identify relevant covariates influencing drug exposure, to predict the influence of strong CYP3A4 or CYP2C9 inhibitors or PPI and to generate population estimates for apparent oral clearance (CL/F) and apparent central volume of distribution (Vc/F) as classical statistical analysis was not suitable due to the unbalanced number of samples per patient. The analysis was conducted on the individual raw data (as opposed to the descriptive statistics) using Monolix 2020R1 (Antony, France: Lixoft SAS, 2020) and was based on a previously published popPK model by Chen et al. investigating pharmacokinetics in patients with primary and secondary myelofibrosis (MF).
Oral pharmacokinetics were described by a two-compartment model using first order absorption with lag time and linear elimination from the first compartment only. The population mean values for CL/F and Vc/F were re-estimated using the SAEM algorithm implemented in Monolix. The remaining parameters, except for the covariate model, were fixed to the original values. As in the original model, all pharmacokinetic parameters were assumed to be log-normally distributed. Dichotomous categorical covariates, were implemented as follows:1 logCL/Ftypical=logCL/Fpop+β^COV with COV being 0 or 1 encoding for the presence or absence of covariate effect.
Continuous covariates were scaled to the population mean values using the following exponential relationship:2 logCL/Ftypical=logCL/Fpop+β∙COV with COV being the value of individual covariate, e.g., scaled eGFR = eGFR/70.2.
Inter-individual variability (η) was implemented for CL/F and Vc/F according to: 3 logCL/Find=logCL/Ftypical+ηind,CLFwithηCL/F∼N0,ωCL/F2logVc/Find=logVc/Ftypical+ηind,Vc/FwithηVc/F∼N0,ωVc/F2
Residual unexplained variability (RUV) was modeled using a proportional error model represented by the parameter b and the following equation:4 Concobs=Concpred∙1+ϵwithϵ∼N(0,b^2)
A stepwise approach was used to develop the covariate model. Covariate effects were assessed using the Wald test and by comparing objective function values (OFV, which is the −2-log-likelihood) and derived descriptors such as Bayesian Information Criteria (BIC), corrected Bayesian Information Criteria (cBIC), and Akaike Information Criteria (AIC). The criterion for forward inclusion was an improvement of the OFV (p ≤ 0.1). In the backward elimination, a limit for the p value of < 0.05 was applied. The following covariates were tested: the presence of strong or moderate CYP3A4 or CYP2C9 inhibitors on CL/F, the presence of PPI on F (as relative bioavailability), aspartate aminotransferase (AST) on CL/F, total body weight on Vc/F, eGFR on CL/F, sex on CL/F, and smoking habit on CL/F.

[8] abbreviates: daily dose 5-< 20 mg, 51 samples.
Setting [9] is: daily dose > 20-40 mg, 3 samples.
Setting [10] is: popPK analysis in patients with aGvHD.

As for `C=C[C@H]1C[N@@]2CC[C@H]1C[C@H]2[C@H](O)c1ccnc2ccc(OC)cc12` [Quinine], in data set [1], the “CYP3A4 (inhibitor / inducer)” value is listed as “inducer / inhibitor”.
Turning to `N#CC[C@H](C1CCCC1)n1cc(-c2ncnc3[nH]ccc23)cn1` [Ruxolitinib], the “Clinical AE reported at the time of blood sampling, total number” value in data set [2] (29 GvHD patients, all grades) is reported as 302. In data set [2] (CTCAE grade 1), the “Clinical AE of grade 1, number” value worked out at 250. Further, the “Clinical AE of grade 2, number” value in data set [2] (CTCAE grade 2) was determined as 46. Further, in data set [2] (CTCAE grade 3), the “Share of all reported clinical AE of grade 3” value came out at 2.0%. In data set [2] (CTCAE grade 4 or 5), the “Clinical AE of grade 4 or 5” value is listed as “no AE of grade 4 or 5”. Further, the entries for the “Average clinical AE reported at each sampling time point” value in data set [2] (grade 1), in data set [2] (grade 2) and in data set [2] (grade 3) were 0.95, 0.18 and 0.02, respectively. Further, the “Mean trough concentration in group” value in data set [2] (first of both groups as printed) came to 35.9 ng/mL; in data set [2] (second of both groups as printed), 62.8 ng/mL. For the same molecule, the “Correlation between trough concentration and occurrence of grade 1 AE on the same visit” value in data set [2] (vertigo and cephalgia, p < 0.05) is “significant correlation”. Also, the “Effect of Ruxolitinib exposure on thrombocyte count, absolute neutrophil count and bilirubin” value in data set [2] (visual analysis of the data) is given as “did not reveal obvious effects”. Also, the “Median paired difference between observed and simulated serum concentrations” value in data set [3] (non-trough concentrations) is reported as 64.9 ng/mL; in data set [3] (trough concentrations) it was 27.1 ng/mL. For the same molecule, the “Q/F, population mean” value in data set [4] (base model) and in data set [4] (covariate model) was 2.53 L/h throughout. Further, the “TLag, population mean” value in data set [4] (base model) and in data set [4] (covariate model) was 0.0545 h throughout. In addition, the “Vper/F, population mean” value in data set [4] (base model) and in data set [4] (covariate model) was 11.2 L each time. In addition, the “ka, population mean” value in data set [4] (base model) and in data set [4] (covariate model) was 4.12 h⁻¹ in each case. In addition, the “All trough serum concentrations at 5 mg daily” value in data set [5] (5 mg daily, 3 of 4 samples < LLOQ (2 ng/mL)) is given as “^aAll trough serum concentrations at 5 mg daily were ≤ 2.17 ng/mL (3 of 4 samples < LLOQ)”. The “Range of individual mean trough serum concentrations” value in data set [5] (20 mg daily, n = 20 individuals) is 5.6 to 99.8 ng/mL; in data set [5] (5-< 20 mg daily, n = 8 individuals), 7.7 to 46.8 ng/mL. Further, the “Median of individual mean trough serum concentrations” value in data set [5] (20 mg daily, patients not requiring AE-related dose reduction, n = 18) is recorded as 39.8 ng/mL; in data set [5] (20 mg daily, patients who had dose reductions for AE, before reduction, n = 4), 60.6 ng/mL; in data set [5] (20 mg daily, steady state, n = 20 individuals), 39.9 ng/mL; in data set [5] (5-< 20 mg daily, steady state, n = 8 individuals) it was 26.2 ng/mL; in data set [5] (> 20-40 mg daily, steady state, n = 2 individuals), 15 ng/mL. Moreover, the “Steady state trough serum concentration of all samples across all individuals, Median” value in data set [5] (daily dose 20 mg, 120 samples) is reported as 40.5 ng/mL; in data set [5] (setting [8]), 17.5 ng/mL; in data set [5] (setting [9]), 25.1 ng/mL; in data set [5] (daily dose: All, 174 samples) it was 31.4 ng/mL. Besides, the “Steady state trough serum concentration of all samples across all individuals, Range” value in data set [5] (daily dose 20 mg, 120 samples) fell in the range of 2.7 to 229 ng/mL; in data set [5] (setting [8]), 2.2 to 155 ng/mL; in data set [5] (setting [9]), 4.3 to 28.5 ng/mL; in data set [5] (daily dose: All, 174 samples), 2.2 to 229 ng/mL. For the same molecule, in data set [5] (patients with AE-related dose reduction, after dose reduction, n = 4), the “Median of mean trough concentrations” value came out at 28.4 ng/mL. In data set [5] (two patients receiving Posaconazole plus Atorvastatin or Amiodarone, mostly above this value), the “Trough concentrations under dual CYP inhibition” value is > 80 ng/mL. Further, in data set [6] (patients with MF), the “CL/F for a typical female” value is recorded as 17.7 L/h. Also, the “CL/F for a typical male” value in data set [6] (patients with MF) is on record as 22.1 L/h. Besides, in data set [6] (setting [10]), the “Lower oral clearance in comparison to MF patients” value is reported as 66.7%. Also, the “Slower rate of absorption in comparison to MF patients” value in data set [6] (setting [10]) is listed as 28%. Further, the “CL/F, population mean” value in data set [7] (base model) came to 8.55 L/h. The “Vc/F, population mean” value is given as 64.8 L in data set [7] (base model) and 61.9 L in data set [7] (covariate model). Also, the “RUV b (residual unexplained variability, proportional error)” value in data set [7] (base model) and in data set [7] (covariate model) was 0.50 throughout. Also, the “ωCL/F (inter-individual variability on CL/F)” value turned out to be 0.52 in data set [7] (base model) and 0.48 in data set [7] (covariate model). In addition, the “ωV (inter-individual variability on Vc/F)” value in data set [7] (base model) turned out to be 0.25; in data set [7] (covariate model), 0.29. In addition, in data set [7] (compared to study patients not receiving relevant strong inhibitors, back transformation of β), the “Reduction of CL/F due to coadministration of at least one strong CYP3A4 or CYP2C9 inhibitor” value is listed as 15%. Moreover, the “βCL, STRONG_INH (covariate effect of strong CYP3A4 or CYP2C9 inhibitors on CL/F)” value in data set [7] (covariate model) was -0.16. The “CL/F, population mean (typical CL/F)” value in data set [7] (covariate model including strong CYP inhibitors as covariate) is listed as 9.74 L/h. Besides, the “Share of inter-individual variability on CL/F explained by strong CYP3A4 or CYP2C9 inhibitors” value in data set [7] (covariate model vs base model) was “about 4%”. Further, in data set [7] (covariate tested on relative bioavailability), the “Effect of simultaneous administration of PPI on Ruxolitinib exposure” value is reported as “did not affect Ruxolitinib exposure”. For the same molecule, the “Reduction of Ruxolitinib clearance in GvHD population” value in data set [7] (in comparison to the population of Chen et al. (patients with MF)) is “approximately 50%”.
Turning to `CC[C@H]1OC(=O)[C@H](C)[C@@H](O[C@H]2C[C@@](C)(OC)[C@@H](O)[C@H](C)O2)[C@H](C)[C@@H](O[C@@H]2O[C@H](C)C[C@H](N(C)C)[C@H]2O)[C@](C)(O)C[C@@H](C)CN(C)[C@H](C)[C@@H](O)[C@]1(C)O` [Azithromycin], the “CYP3A4 (inhibitor / inducer)” value in data set [1] is “inhibitor”.
Regarding `CN(C)C(=O)C(CCN1CCC(O)(c2ccc(Cl)cc2)CC1)(c1ccccc1)c1ccccc1` [Loperamide], in data set [1], the “CYP3A4 (inhibitor / inducer)” value is recorded as “inhibitor” and the “CYP3A4 Strength” value is recorded as “strong”.
